From US9359297B2, “Spirolactam derivatives and uses of same” (H. Lundbeck A/S, priority 2009, dated 2016) come the findings set out here.

The assay concerns the target T1, human metabotropic glutamate receptor 5 (hmGluR5) (Homo sapiens, UniProt P41594).
T1 construct: expressed in transfected cells
The experiment in a line: Calcium mobilization (FLIPR) assay for negative allosteric modulation, EC80 glutamate, hmGluR5 in HEK 293. The assay is classed as cell-based. The following applies: HEK293; hmGluR5, inhibition of EC80 glutamate response; read-out: FLIPR maximum inhibition. On the procedure: The cDNA for rat metabotropic glutamate receptor 5 (rmGluR5) and the cDNA for human metabotropic glutamate receptor 5 (hmGluR5) were generous gifts from S. Nakanishi (Kyoto University, Kyoto, Japan). The rmGluR5 or hmGluR5 was stably expressed in a HEK 293 cell line and grown in Dulbecco's Modified Eagle Medium (DMEM) (Invitrogen, Carlsbad, Calif.) with supplements (10% bovine calf serum, 4 mM glutamine, 100 units/mL penicillin, 100 μg/mL streptomycin and 0.75 mM G1418) at 37° C., 5% CO2. Twenty-four hours prior to assay, cells were seeded into 384-well black wall microtiter plates coated with poly-D-lysine. Just prior to assay, media was aspirated and cells dye-loaded (25 μL/well) with 3 μM Fluo-4/0.01% pluronic acid in assay buffer (Hank's Balanced Saline Solution (HBSS)): 150 mM NaCl, 5 mM KCl, 1 mM CaCl2, 1 mM MgCl2, plus 20 mM N-2-Hydroxyethylpiperazine-N′-2-ethanesulfonic acid (HEPES), pH 7.4, 0.1% bovine serum albumin (BSA) and 2.5 mM probenicid) for 1 hour in 5% CO2 at 37° C. After excess dye was discarded, cells were washed in assay buffer and layered with a final volume equal to 30 μL/well. Basal fluorescence is monitored in a fluorometric imaging plate reader (FLIPR) (Molecular Devices, Sunnyvale, Calif.) with an excitation wavelength of 488 nm and an emission range of 500 to 560 nm. Laser excitation energy was adjusted so that basal fluorescence readings were approximately 10,000 relative fluorescent units. Cells were stimulated with an EC20 or an EC80 concentration of glutamate in the presence of a compound to be tested, both diluted in assay buffer, and relative fluorescent units were measured at defined intervals (exposure=0.6 sec) over a 3 min period at room temperature. Basal readings derived from negative controls were subtracted from all samples. Maximum change in fluorescence was calculated for each well. Concentration-response curves derived from the maximum change in fluorescence were analyzed by nonlinear regression (Hill equation). A negative modulator can be identified from these concentration-response curves if a compound produces a concentration dependent inhibition of the EC80 glutamate response.

T1 sequence (P41594 21-1212): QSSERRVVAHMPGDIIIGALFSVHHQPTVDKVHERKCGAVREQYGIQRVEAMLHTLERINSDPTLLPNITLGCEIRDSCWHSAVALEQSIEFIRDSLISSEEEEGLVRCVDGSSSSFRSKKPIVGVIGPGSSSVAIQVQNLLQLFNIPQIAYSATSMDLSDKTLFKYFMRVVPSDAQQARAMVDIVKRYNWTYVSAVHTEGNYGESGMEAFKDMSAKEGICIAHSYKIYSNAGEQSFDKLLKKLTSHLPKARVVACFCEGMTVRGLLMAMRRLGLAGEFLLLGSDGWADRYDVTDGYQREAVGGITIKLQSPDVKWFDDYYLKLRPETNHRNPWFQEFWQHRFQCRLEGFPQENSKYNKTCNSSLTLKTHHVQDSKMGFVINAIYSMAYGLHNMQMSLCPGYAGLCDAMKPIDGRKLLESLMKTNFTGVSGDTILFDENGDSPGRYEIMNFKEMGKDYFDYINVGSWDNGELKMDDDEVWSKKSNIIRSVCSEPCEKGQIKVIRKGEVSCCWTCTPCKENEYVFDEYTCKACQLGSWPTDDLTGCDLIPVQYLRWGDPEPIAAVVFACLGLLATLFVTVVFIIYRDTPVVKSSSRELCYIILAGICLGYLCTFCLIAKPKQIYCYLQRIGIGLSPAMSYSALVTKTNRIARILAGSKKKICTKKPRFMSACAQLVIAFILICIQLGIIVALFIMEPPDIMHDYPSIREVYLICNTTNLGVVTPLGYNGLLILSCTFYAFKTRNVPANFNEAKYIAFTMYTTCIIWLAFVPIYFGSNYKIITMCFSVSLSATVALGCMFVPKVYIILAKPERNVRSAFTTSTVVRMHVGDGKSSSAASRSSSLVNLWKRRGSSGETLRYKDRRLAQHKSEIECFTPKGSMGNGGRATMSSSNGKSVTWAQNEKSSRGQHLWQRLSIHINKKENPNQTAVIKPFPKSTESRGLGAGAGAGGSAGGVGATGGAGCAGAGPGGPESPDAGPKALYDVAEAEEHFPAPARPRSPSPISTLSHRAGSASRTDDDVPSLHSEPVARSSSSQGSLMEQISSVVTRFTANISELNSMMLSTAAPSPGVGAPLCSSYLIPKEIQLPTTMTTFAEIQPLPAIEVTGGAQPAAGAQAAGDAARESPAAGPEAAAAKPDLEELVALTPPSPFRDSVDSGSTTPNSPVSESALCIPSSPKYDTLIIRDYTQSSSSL

As for `Cc1cncc(C(=O)N[C@H]2CCC[C@]3(CCN(c4cc(-c5ccc(F)cc5)ncn4)C3=O)C2)n1` (relative stereo) [Example 86, cis-6-Methyl-pyrazine-2-carboxylic acid {2-[6-(4-fluoro-phenyl)-pyrimidin-4-yl]-1-oxo-2-aza-spiro [4.5]dec-7-yl}-amide], the Emax lay within 73 to 95%.

Take `Cc1cccc(C(=O)N[C@H]2CCC[C@]3(CCN(c4cc(-c5ccc(F)cc5)ncn4)C3=O)C2)n1` (relative stereo) [Example 87, cis-6-Methyl-pyridine-2-carboxylic acid {2-[6-(4-fluoro-phenyl)-pyrimidin-4-yl]-1-oxo-2-aza-spiro [4.5]dec-7-yl}-amide]: the Emax was in the range of 73 to 95%.

As for `O=C(N[C@H]1CCC[C@]2(CCN(c3cc(-c4ccc(F)cc4)ncn3)C2=O)C1)c1cccc(F)c1` (relative stereo) [Example 88, cis-3-Fluoro-N-{2-[6-(4-fluoro-phenyl)-pyrimidin-4-yl]-1-oxo-2-aza-spiro[4.5]dec-7-yl}-benzamide], the Emax lay within 73 to 95%.

In the case of `Cc1nccc(N2CC[C@]3(CCC[C@H](NC(=O)c4ccc(F)cc4)C3)C2=O)n1` (relative stereo) [Example 89, cis-4-Fluoro-N-[2-(2-methyl-pyrimidin-4-yl)-1-oxo-2-aza-spiro [4.5]dec-7-yl]-benzamide], the Emax fell in the range of 73 to 95%.

In the case of `Cc1nccc(N2CC[C@]3(CCC[C@H](NC(=O)c4ccc(F)c(F)c4)C3)C2=O)n1` (relative stereo) [Example 90, cis-3,4-Difluoro-N-[2-(2-methyl-pyrimidin-4-yl)-1-oxo-2-aza-spiro [4.5]dec-7-yl]-benzamide], the Emax is 73 to 95%.

Take `Cc1nccc(N2CC[C@]3(CCC[C@H](NC(=O)c4ccccc4F)C3)C2=O)n1` (relative stereo) [Example 91, cis-2-Fluoro-N-[2-(2-methyl-pyrimidin-4-yl)-1-oxo-2-aza-spiro [4.5]dec-7-yl]-benzamide]: the Emax was 73 to 95%.

`Cc1cc(C(=O)N[C@H]2CCC[C@]3(CCN(c4ccnc(C)n4)C3=O)C2)ccn1` (relative stereo) [Example 92, cis-2-Methyl-N-[2-(2-methyl-pyrimidin-4-yl)-1-oxo-2-aza-spiro [4.5]dec-7-yl]-isonicotinamide]: the Emax fell in the range of 73 to 95%.

Consider `O=C(N[C@H]1CCC[C@]2(CCN(c3cccc(F)c3)C2=O)C1)c1cccc(CO)n1` (relative stereo) [Example 93, cis-6-Hydroxymethyl-pyridine-2-carboxylic acid [2-(3-fluoro-phenyl)-1-oxo-2-aza-spiro[4.5]dec-7-yl]-amide], for which the Emax was in the range of 73 to 95%.

With `O=C(N[C@H]1CCC[C@]2(CCN(c3cccc(F)c3)C2=O)C1)c1cccc(C(F)(F)F)n1` (relative stereo) [Example 94, cis-6-Trifluoromethyl-pyridine-2-carboxylic acid [2-(3-fluoro-phenyl)-1-oxo-2-aza-spiro[4.5]dec-7-yl]-amide], the Emax was 73 to 95%.

Consider `Cc1nccc(N2CC[C@]3(CCC[C@H](NC(=O)c4cccc(C(F)(F)F)n4)C3)C2=O)n1` (relative stereo) [Example 96, cis-6-Trifluoromethyl-pyridine-2-carboxylic acid [2-(2-methyl-pyrimidin-4-yl)-1-oxo-2-aza-spiro [4.5]dec-7-yl]-amide], for which the Emax was 73 to 95%.

On to `Cc1nccc(C(=O)N[C@@H]2CC(F)(F)C[C@]3(CCN(c4cc(F)cc(F)c4)C3=O)C2)n1` (relative stereo) [Example 105, trans-2-Methyl-pyrimidine-4-carboxylic acid [2-(3,5-difluoro-phenyl)-9,9-difluoro-1-oxo-2-aza-spiro[4.5]dec-7-yl]-amide], for which the Emax fell in the range of 47 to 93%.

Take `O=C(N[C@@H]1CC(F)(F)C[C@@]2(CCN(c3ccc(F)cc3)C2=O)C1)c1ccccn1` (relative stereo) [Example 106, cis-Pyridine-2-carboxylic acid [9,9-difluoro-2-(4-fluoro-phenyl)-1-oxo-2-aza-spiro[4.5]dec-7-yl]-amide]: the Emax lay within 47 to 93%.
